# Test results taken from PubChem BioAssay AID1033 (Sanford-Burnham Center for Chemical Genomics, 2008).
# The source made the active and inactive calls. How the calls were made is not given here.
# Target: Chaperone protein DnaK (Escherichia coli (strain K12)) (UniProt P0A6Y8)
# Test: binders of DnaK substrate-binding domain, biophysical, NMR, chaperone (AID 1033)
# Conditions: Purified DnaK SBD, NMR ligand binding
# Sequence of Chaperone protein DnaK (Escherichia coli (strain K12)) (P0A6Y8 whole entry, looked up, the tested form may be a part): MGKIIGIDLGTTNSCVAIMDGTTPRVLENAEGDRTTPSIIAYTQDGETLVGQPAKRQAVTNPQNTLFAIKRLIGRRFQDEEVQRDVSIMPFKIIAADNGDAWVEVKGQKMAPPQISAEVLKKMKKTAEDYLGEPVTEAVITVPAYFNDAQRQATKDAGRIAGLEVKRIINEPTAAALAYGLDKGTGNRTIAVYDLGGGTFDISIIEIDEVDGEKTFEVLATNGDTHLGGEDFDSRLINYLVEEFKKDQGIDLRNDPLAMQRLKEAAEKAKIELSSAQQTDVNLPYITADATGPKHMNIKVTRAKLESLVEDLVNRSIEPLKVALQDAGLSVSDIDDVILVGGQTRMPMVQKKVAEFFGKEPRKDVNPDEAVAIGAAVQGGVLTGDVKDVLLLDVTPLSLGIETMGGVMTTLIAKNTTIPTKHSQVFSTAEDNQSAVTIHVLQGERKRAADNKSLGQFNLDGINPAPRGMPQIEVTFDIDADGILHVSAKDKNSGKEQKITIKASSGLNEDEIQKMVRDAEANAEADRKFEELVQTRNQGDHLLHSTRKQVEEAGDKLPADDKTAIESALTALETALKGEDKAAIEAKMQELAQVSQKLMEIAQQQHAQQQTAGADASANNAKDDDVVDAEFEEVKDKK
row,Compound,Kd
1,CC(=O)c1ccc(NC(=O)c2ocnc2C)cc1,> 4 mM (inactive)
2,O=C(CSc1nc2ccccc2[nH]1)N1CCCCC1,> 4 mM (inactive)
3,CN(C)C(=O)N1CCN(C(=O)c2ccco2)CC1,> 4 mM (inactive)
4,N=C1/C(=C\c2ccco2)C(=O)N=C2SC=NN12,> 4 mM (inactive)
5,C[C@]12CCC(=O)C=C1CCC1C2C(=O)C[C@@]2(C)C1CC[C@]2(O)C(=O)CO (some centres undefined),> 4 mM (inactive)
6,CC(=O)N1CCc2cc(NC(=O)c3ccc(C)cc3)ccc21,> 4 mM (inactive)
7,Cc1cc(C)n2nc(-c3cccnc3)nc2n1,> 4 mM (inactive)
8,CC(=O)CC1(O)C(=O)Nc2ccc(Br)cc21 (centres undefined),> 4 mM (inactive)
9,O=C(Nc1ccon1)c1cccc(C(F)(F)F)c1,> 4 mM (inactive)
10,CC(=O)Nc1ccc(S(=O)(=O)N(C)C)cc1,> 4 mM (inactive)
11,Cc1ccc(-c2nnc3sc(-c4ccncc4)nn23)cc1,> 4 mM (inactive)
12,C(=Nn1cnnc1)c1ccccc1,> 4 mM (inactive)
13,Cc1cc2c(=O)n(C)c(SCC(N)=O)nc2s1,> 4 mM (inactive)
14,Cc1nc2ccccc2c(=O)[nH]1,> 4 mM (inactive)
15,COc1cc2c(cc1OC)C1Cc3ccc(OC)c(OC)c3CN1CC2 (centres undefined),> 4 mM (inactive)
16,NC1=NC(=O)/C(=C\c2cccnc2)S1,> 4 mM (inactive)
17,NC(=O)C1CCN(c2nccc(C(F)(F)F)n2)CC1,> 4 mM (inactive)
18,Cc1nnc(Nc2cccnc2)[nH]c1=O,> 4 mM (inactive)
19,Cc1ccc(N2C(=O)CC(Sc3ncn[nH]3)C2=O)cc1 (centres undefined),> 4 mM (inactive)
20,Cc1n[nH]c(=O)nc1N1CCN(c2ccccc2)CC1,> 4 mM (inactive)

row,Compound,Kd
1,Cn1cnc2c(Cl)ncnc21,> 4 mM (inactive)
2,N#CCCn1c(=O)oc2ccccc21,> 4 mM (inactive)
3,COCc1cc(=O)oc2cc(N)ccc12,> 4 mM (inactive)
4,O=C1CCCC(=O)N1Cc1ccco1,> 4 mM (inactive)
5,NC(=S)N1CCC(c2ccccc2)=N1,> 4 mM (inactive)
6,O=c1c2ccccc2nc(-c2ccco2)n1-c1nccs1,> 4 mM (inactive)
7,C/C=C(\C)C(=O)OC1[C@@H]2C=C3C(CC[C@]4(C)C3CC(=O)O[C@H]4c3ccoc3)C(C)(C2=O)[C@@H](C(O)C(=O)OC)C1(C)C (some centres undefined),> 4 mM (inactive)
8,O=S1(=O)C=CC(N2CCCCC2)C1 (centres undefined),> 4 mM (inactive)
9,O=C(c1ccco1)N1CCn2c1nc1ccccc12,> 4 mM (inactive)
10,Cc1ccc(-c2nn3c(C)nnc3s2)cc1N,> 4 mM (inactive)
11,COc1cnn(Cc2ccccc2)c(=O)c1Cl,> 4 mM (inactive)
12,Cc1cc(N2CCCC2=O)c(N)cc1N,> 4 mM (inactive)
13,COc1c(C(C)C)oc2cc3oc(=O)ccc3cc12,> 4 mM (inactive)
14,N#CCSc1nnc2ccc3ccccc3n12,> 4 mM (inactive)
15,CN(C)C(=O)CSc1nc(N)cc(=O)[nH]1,> 4 mM (inactive)
16,CCc1c(C)n([O-])c2c([n+]1=O)CCC2,> 4 mM (inactive)
17,Cc1occc1C(=O)Nc1ccc(C(N)=O)cc1,> 4 mM (inactive)
18,O=C1CNCc2[nH]c3ccccc3c2N1c1ccccc1,> 4 mM (inactive)
19,COc1ccc2c(c1)OC/C(=C/c1ccc(OC)c(OC)c1)C2=O,> 4 mM (inactive)
20,O=c1[nH]nc(Cc2ccncc2)c2ccccc12,> 4 mM (inactive)

row,Compound,Kd
1,CCn1c(C)c(C(C)=O)c(N2CCOCC2)nc1=S,> 4 mM (inactive)
2,Cc1cc(CN2C(=O)c3ccccc3C2=O)on1,> 4 mM (inactive)
3,O=C(c1cc2ccccc2o1)c1nc2c(n1O)CCCCC2,> 4 mM (inactive)
4,O=S1(=O)C=CC(Nc2ccccc2)C1 (centres undefined),> 4 mM (inactive)
5,CC(=O)OC1CCC2(C)C(=CC=C3C2CCC2(C)C3CCC2C(C)/C=C/C(C)C(C)C)C1(C)C (centres undefined),> 4 mM (inactive)
6,COC(=O)C1CSCC1=O (centres undefined),> 4 mM (inactive)
7,O=C(NN1CCOCC1)c1cccs1,> 4 mM (inactive)
8,O=C(NCCO)c1cc2ccccc2c(=O)s1,> 4 mM (inactive)
9,C=C[C@@]1(C)CC(=O)[C@@]2(O)[C@](C)(O1)[C@@H](OC(C)=O)[C@@H](O)C1C(C)(C)CC[C@H](O)[C@@]12C (some centres undefined),> 4 mM (inactive)
10,Cc1nnc(SCc2ccc(F)cc2)s1,> 4 mM (inactive)
11,CSc1ccccc1NC(=O)c1ccoc1C,> 4 mM (inactive)
12,NS(=O)(=O)c1ccc(NC(=O)c2cccs2)cc1,> 4 mM (inactive)
13,O=C(O)C1COc2ccccc2O1 (centres undefined),> 4 mM (inactive)
14,CCOC(=O)CC1NCCNC1=O (centres undefined),> 4 mM (inactive)
15,COCc1cc(C)nc2sc(C(=O)OC)c(N)c12,> 4 mM (inactive)
16,O=C(Nn1cnnc1)c1cccc(C(F)(F)F)c1,> 4 mM (inactive)
17,CCSc1n[nH]c(=O)[nH]c1=O,> 4 mM (inactive)
18,Cc1cc(NC(=O)NCCCSc2nncn2C)no1,> 4 mM (inactive)
19,Nc1nc(-c2nc3ccccc3[nH]2)cs1,> 4 mM (inactive)
